Calls of active or inactive are those of the source. The calls are words filed in the database; no cut-off is given here.

Assay [1] has as its system Mus musculus. As to the kind of experiment: Potentiation of 20 mg/kg, ip furosemide-induced acute diuretic action in CD1 mouse assessed as effect on urine pH at 50 mg/kg, ip relative to control. It counts as functional, organism-based.
Assay [2] addresses T1, Pendrin (Mus musculus) (UniProt Q9R155).
T1 sequence (whole entry): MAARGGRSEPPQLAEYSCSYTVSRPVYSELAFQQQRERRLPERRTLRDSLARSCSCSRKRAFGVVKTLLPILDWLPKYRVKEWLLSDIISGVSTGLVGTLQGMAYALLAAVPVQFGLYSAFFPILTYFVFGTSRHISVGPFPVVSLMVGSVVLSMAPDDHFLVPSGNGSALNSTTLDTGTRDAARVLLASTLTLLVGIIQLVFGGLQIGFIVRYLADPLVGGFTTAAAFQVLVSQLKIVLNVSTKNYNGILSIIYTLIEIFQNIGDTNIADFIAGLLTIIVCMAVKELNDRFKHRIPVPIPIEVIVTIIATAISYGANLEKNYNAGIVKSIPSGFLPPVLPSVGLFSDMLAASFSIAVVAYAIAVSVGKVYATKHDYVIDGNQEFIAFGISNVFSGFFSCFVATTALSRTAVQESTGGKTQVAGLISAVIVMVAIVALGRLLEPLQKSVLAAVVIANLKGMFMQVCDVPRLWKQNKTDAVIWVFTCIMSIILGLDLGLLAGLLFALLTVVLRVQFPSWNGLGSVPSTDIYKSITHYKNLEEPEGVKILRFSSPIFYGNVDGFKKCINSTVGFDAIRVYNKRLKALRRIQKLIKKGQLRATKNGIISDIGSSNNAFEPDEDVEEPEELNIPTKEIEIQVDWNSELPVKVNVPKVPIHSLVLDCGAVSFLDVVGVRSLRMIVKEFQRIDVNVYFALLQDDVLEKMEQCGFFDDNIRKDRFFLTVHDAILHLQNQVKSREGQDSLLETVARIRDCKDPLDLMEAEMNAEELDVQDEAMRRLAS
Description: Inhibition of mouse pendrin expressed in FRT cells co-expressing YFP-HIF assessed as reduction in pendrin-mediated kinetics of CI7HCO3(-) exchange by pH-sensitive fluorescent probe BCECF-AM based fluorescence assay relative to control. The class given is cell-based.

In assay [3] the target is T2, Pendrin (Homo sapiens) (UniProt O43511).
T2 sequence (whole entry): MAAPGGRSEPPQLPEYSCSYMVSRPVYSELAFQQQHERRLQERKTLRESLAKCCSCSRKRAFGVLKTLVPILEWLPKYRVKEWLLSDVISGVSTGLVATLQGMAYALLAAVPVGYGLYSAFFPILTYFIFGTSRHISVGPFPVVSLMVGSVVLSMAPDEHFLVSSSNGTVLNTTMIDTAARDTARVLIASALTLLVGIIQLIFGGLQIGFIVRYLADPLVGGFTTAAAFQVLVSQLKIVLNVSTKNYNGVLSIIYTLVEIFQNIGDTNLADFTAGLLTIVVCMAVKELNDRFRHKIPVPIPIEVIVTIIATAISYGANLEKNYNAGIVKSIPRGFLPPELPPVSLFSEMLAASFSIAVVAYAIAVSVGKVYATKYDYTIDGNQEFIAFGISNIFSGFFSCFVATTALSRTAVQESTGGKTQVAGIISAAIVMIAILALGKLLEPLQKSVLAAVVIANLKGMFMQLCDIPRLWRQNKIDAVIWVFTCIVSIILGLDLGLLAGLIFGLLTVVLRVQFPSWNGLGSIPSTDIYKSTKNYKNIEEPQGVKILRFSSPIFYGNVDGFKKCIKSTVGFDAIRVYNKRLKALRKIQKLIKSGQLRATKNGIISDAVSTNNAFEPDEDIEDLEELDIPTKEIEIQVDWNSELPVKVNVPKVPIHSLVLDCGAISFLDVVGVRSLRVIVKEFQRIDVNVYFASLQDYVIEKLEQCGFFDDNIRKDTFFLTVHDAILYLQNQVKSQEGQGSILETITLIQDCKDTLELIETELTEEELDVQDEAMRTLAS
Description: Inhibition of pendrin in IL13-stimulated human CFBE assessed as reduction in gluconate gradient-induced intracellular alkalization at 25 uM. The class given is cell-based.

For assay [4], the species on record is Homo sapiens. As to the kind of experiment: Effect on airway surface liquid pH in IL13-stimulated human CFBE at 25 uM by pH-sensitive fluorophore BCECF based fluorescence based assay. The class given is functional.
In assay [5] the target is T3, Chloride anion exchanger (Homo sapiens) (UniProt P40879).
T3 sequence (whole entry): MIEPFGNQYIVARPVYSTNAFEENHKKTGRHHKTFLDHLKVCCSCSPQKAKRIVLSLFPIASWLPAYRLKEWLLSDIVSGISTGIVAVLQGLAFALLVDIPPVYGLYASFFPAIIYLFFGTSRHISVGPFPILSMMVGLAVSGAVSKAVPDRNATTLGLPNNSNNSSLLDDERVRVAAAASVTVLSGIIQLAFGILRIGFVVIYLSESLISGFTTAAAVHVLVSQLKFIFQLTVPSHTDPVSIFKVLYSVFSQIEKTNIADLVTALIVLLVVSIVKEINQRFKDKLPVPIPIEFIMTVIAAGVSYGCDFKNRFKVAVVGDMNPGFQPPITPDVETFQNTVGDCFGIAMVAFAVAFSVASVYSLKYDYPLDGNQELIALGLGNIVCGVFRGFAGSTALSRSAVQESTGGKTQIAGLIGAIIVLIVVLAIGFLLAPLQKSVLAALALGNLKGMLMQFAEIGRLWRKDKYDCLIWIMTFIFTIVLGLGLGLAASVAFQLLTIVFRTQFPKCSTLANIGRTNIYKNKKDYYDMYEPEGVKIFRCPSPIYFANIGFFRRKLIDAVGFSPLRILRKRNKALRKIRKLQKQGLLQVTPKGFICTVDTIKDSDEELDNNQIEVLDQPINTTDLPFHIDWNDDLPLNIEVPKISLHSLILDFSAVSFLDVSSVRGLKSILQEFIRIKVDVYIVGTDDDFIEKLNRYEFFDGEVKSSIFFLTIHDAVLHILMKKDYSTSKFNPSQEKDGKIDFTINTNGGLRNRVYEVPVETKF
As to the kind of experiment: Inhibition of human SLC26A3 expressed in COS7 co-expressing EYFP-HIF assessed as reduction in SCN gradient.

The species named for assay [6] is Homo sapiens. Description: Inhibition of ENaC in human bronchial epithelial cells assessed as effect on short-circuit current at 25 uM pre-incubated for 30 mins.
The species named for assay [7] is Homo sapiens. Description: Effect on gluconate gradient-induced Cl/HC03- efflux in NHBE cells at 25 uM. The class given is functional, cell-based.
In assay [8] the test system is Mus musculus. Description: Potentiation of 20 mg/kg, ip bid for 8 days furosemide-induced chronic diuretic action in CD1 mouse assessed as increase in urine volume at 10 mg/kg, ip measured at 3 hrs relative to control. It counts as functional.

Turning to `Cc1n[nH]c(-c2cc(S(=O)(=O)NC3CCCc4ccccc43)c(C)s2)c1C` (stereo not drawn), the outcome in assay [1] was inactive. Moreover, the inhibition result in assay [2] is “Dose-dependent effect”.
Take `Cn1nc(COc2cccc(F)c2)c2c1CCN(C(=O)Nc1ccc(Cl)cc1)C2`: the inhibition result in assay [3] was “Active”. The outcome in assay [4] and in assay [7] was inactive. The inhibition result in assay [5] and in assay [6] was “inactive” in each case. In addition, in assay [8], the Activity came to 60%.

(Values after ChEMBL document CHEMBL4417636, “Small molecule inhibitors of pendrin ion exchange and pharmaceutical compositions” (2017).)
